The record followed here is ChEMBL document CHEMBL1124686.

Calls of active or inactive are those of the source. The rule behind the calls is not given here.

In test [1] the target is D(2) dopamine receptor (Mus musculus) (UniProt P61168). Nature of the test: Compound was evaluated for its ability to inhibit the potassium -induced release of [3H]- acetylcholine release in mouse striatal […] by stimulating D2 receptor. As to conditions: Striatum.
Test [2] shares this target. Nature of the test: Compound was evaluated for its ability to inhibit the potassium -induced release of [3H]- acetylcholine release in mouse striatal […] by stimulating dopamine receptor D2. As to conditions: Striatum.
The target is the same in test [3]. The test is described as follows: The dissociation constant for the inhibition of agonist effect on the K+ evoked release of [3H]- acetylcholine in mouse striatal […]; NS means No statistically significant antagonism observed in […]. The format is functional.
The target is the same in test [4]. The settings on record: Striatum; Membrane.
Description: Compound was evaluated for its ability to inhibit the potassium -induced release of [3H]- acetylcholine release in mouse striatal membranes by stimulating Dopamine receptor D2

Sequence of D(2) dopamine receptor (Mus musculus) (P61168 whole entry): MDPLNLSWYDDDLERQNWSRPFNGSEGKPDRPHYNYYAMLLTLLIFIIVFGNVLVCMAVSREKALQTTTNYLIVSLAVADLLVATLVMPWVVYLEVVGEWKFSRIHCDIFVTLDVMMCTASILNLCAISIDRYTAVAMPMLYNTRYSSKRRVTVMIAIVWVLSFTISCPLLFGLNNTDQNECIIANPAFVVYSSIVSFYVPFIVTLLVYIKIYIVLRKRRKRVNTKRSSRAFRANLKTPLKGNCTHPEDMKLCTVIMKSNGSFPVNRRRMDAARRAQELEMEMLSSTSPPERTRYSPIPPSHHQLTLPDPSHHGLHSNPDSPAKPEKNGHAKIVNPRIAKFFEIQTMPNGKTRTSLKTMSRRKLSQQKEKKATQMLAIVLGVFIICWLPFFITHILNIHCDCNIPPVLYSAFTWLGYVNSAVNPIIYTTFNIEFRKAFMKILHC

For the compound `CC[S+]1CCCC1CNC(=O)c1cc(S(N)(=O)=O)ccc1OC` (stereo unspecified), the ED50 in test [1] came to 38.4 nM. In test [2], `CC[N+]1(CC)CCCC1CNC(=O)c1cc(S(N)(=O)=O)ccc1OC` (stereo unspecified) returned an ED50 of 26.3 nM. Compound `COc1ccc(S(N)(=O)=O)cc1C(=O)NCC1CCCS1` (stereo unspecified) came in with an ED50 in test [2] of 48.1 nM. Besides, in test [3], the Kb entry was “inactive”. With `CCN1CCCC1CNC(=O)c1cc(S(N)(=O)=O)ccc1OC` (stereo unspecified), the ED50 in test [4] was 75.9 nM. For `CC[N+]1(C)CCCC1CNC(=O)c1cc(S(N)(=O)=O)ccc1OC` (stereo unspecified), in test [2], the ED50 stood at 25.1 nM.
